Experimental data reported in patent US8426220B2, “Utilization of shield effect for dopamine detection and reagent development” (National Tsing Hua University, priority 2009, dated 2013).

Experiments:
PC12 cell line = test: GFP fluorescent signal of dopamine probes and controls in PC12 stable cell lines, confocal microscopy; assay type: cell-based, rat; details: excited by 488 nm laser, no substrate
Source text: The rat pheochromocytoma cells (PC12 cell) were transfected with sequences of GFP, ΔhMAO B, and the probe protein through vector containing internal ribosome entry site (IRES). After antibiotic selection for more than a month, cell lines consistently expressing dopamine probe proteins were successfully established. The cell lines were detected by GFP antibody in Western blotting and observed by confocal microscopy.

E. coli strain BL21 = test: GFP fluorescent signal of dopamine probes and controls in living E. coli BL21, confocal microscopy; assay type: cell-based; details: living E. coli BL21 after IPTG induction, excited by 488 nm laser, no substrate
[1] = target: T1, hMAO B-GFP fusion protein (medium form of dopamine probe) in PC12 cells (Homo sapiens, UniProt P27338); test: MAO substrates MPTP and L-DOPA added to cells expressing dopamine probe elicit GFP fluorescence; assay type: cell-based; details: for GFP fluorescence after drug treatment: PC12 cells expressing medium form of dopamine probe; for green fluorescence (release from shield effect) after treatment: preliminary experiment, excitation of 488 nm laser, a part of the cells
T1 construct: expressed in transfected cells
Source text: Additions of MAO Substrates 1-methyl-4-phenyl-1,2,3,6-tetrahydropyridine (MPTP) and L-DOPA in Cells Expressing Dopamine Probe Elicit GFP Fluorescence
MPTP is a widely used compound as an MAO substrate. It is also used for measuring the enzyme activity of the MAO protein. The L-DOPA is a stable dopamine precursor and has been extensively used for the treatment of Parkinson's disease. After entering the cell, it could be converted into dopamine by the dopa decarboxylase. Both of the drugs could bind to dopamine transporter and be transported into the PC12 cells.

[2] = differentiated PC12 cell line (NGF)
[3] = undifferentiated PC12 cell line

GFP: full-length green fluorescent protein, SEQ ID NO: 2, control [reference compound]
GFP fluorescent signal (PC12 cell line; [2]): clear fluorescent signals | GFP fluorescent signal (PC12 cell line; [3]): clear fluorescent signals | GFP fluorescent signal (E. coli strain BL21): Evident expression of green fluorescent signal | GFP fluorescent signal (E. coli strain BL21; listed as full length GFP): clear fluorescent signals

N[C@@H](Cc1ccc(O)c(O)c1)C(=O)O [L-DOPA]
GFP fluorescence after drug treatment ([1]; 100 μM L-dopa): strong GFP fluorescence | green fluorescence (release from shield effect) after treatment [1]: green fluorescence in those cells was successfully emitted

CN1CC=C(c2ccccc2)CC1 [MPTP, 1-methyl-4-phenyl-1,2,3,6-tetrahydropyridine]
GFP fluorescence after drug treatment ([1]; 1 mM MPTP): strong GFP fluorescence | green fluorescence (release from shield effect) after treatment [1]: green fluorescence in those cells was successfully emitted

B1: ΔhMAO B (protein)
chain: MSNKCDVVVVGGGISGMAAAKLLHDSGLNVVVLEARDRVGGRTYTLRNQKVKYVDLGGSYVGPTQNRILRLAKELGLETYKVNEVERLIHHVKGKSYPFRGPFPPVWNPITYLDHNNFWRTMDDMGREIPSDAPWKAPLAEEWDNMTMKELLDKLCWTESAKQLATLFVNLCVTAETHEVSALWFLWYVKQCGGTTRIISTTNGGQERKFVGGSGQVSERIMDLLGDRVKLERPVIYIDQTRENVLVETLNHEMYEAKYVISAIPPTLGMKIHFNPPLPMMRNQMITRVPLGSVIKCIVYYKEPFWRKKDYCGTMIIDGEEAPVAYTLDDTKPEGNYAAIMGFILAHKARKLARLTKEERLKKLCELYAKVLGSLEALEPVHYEEKNWCEEQYSGGCYTTYFPPGILTQYGRVLRQPVDRIYFAGTETATHWSGYMEGAVEAGERAAREILHAMGKIPEDEI
GFP fluorescent signal (PC12 cell line; [2]): no signal | GFP fluorescent signal (PC12 cell line; [3]): no signal | GFP fluorescent signal (E. coli strain BL21): no fluorescent signal

B2: hMAO B: the complete human monoamine oxidase B, SEQ ID NO: 1, control (protein, listed as Homo sapiens)
chain: MSNKCDVVVVGGGISGMAAAKLLHDSGLNVVVLEARDRVGGRTYTLRNQKVKYVDLGGSYVGPTQNRILRLAKELGLETYKVNEVERLIHHVKGKSYPFRGPFPPVWNPITYLDHNNFWRTMDDMGREIPSDAPWKAPLAEEWDNMTMKELLDKLCWTESAKQLATLFVNLCVTAETHEVSALWFLWYVKQCGGTTRIISTTNGGQERKFVGGSGQVSERIMDLLGDRVKLERPVIYIDQTRENVLVETLNHEMYEAKYVISAIPPTLGMKIHFNPPLPMMRNQMITRVPLGSVIKCIVYYKEPFWRKKDYCGTMIIDGEEAPVAYTLDDTKPEGNYAAIMGFILAHKARKLARLTKEERLKKLCELYAKVLGSLEALEPVHYEEKNWCEEQYSGGCYTTYFPPGILTQYGRVLRQPVDRIYFAGTETATHWSGYMEGAVEAGERAAREILHAMGKIPEDEIWQSEPESVDVPAQPITTTFLERHLPSVPGLLRLIGLTTIFSATALGFLAHKRGLLVRV
modifications: mat_peptide (1)..(520)
GFP fluorescent signal (E. coli strain BL21): no fluorescent signal
